# Patent US20220289732A1, “HETEROCYCLIC WDR5 INHIBITORS AS ANTI-CANCER COMPOUNDS” (NOVARTIS AG, priority 2019, published 2022)
# What was measured:
# WDR5 = WDR5 (Homo sapiens, UniProt P61964); assay: WDR5 HTRF binding assay; conditions: read-out: (a) WDR5 HTRF Pep Val v.1[Inhibitor/IC50]Qualified AC50
# Procedure, shortened: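 6 nM WDR5 and 20 nM biotin-MLL1 WIN peptide (3762-3773) were incubated with compound (12-point, 3-fold dilutions) in pH 7.5 Hepes/NaCl/DTT buffer for 20 min at rt. Streptavidin-APC plus anti-His-Eu were then added for 1 hr, with HTRF read at 665/615. IC50 was fit from control-normalized activity; the counter assay used 15 nM biotin-PEG-His peptide.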
# [1] = molecular target: wild type MLL1 four-member complex (MLL1-4C) (Homo sapiens, UniProt P61964); assay: MLL1 LC-MS assay (SAH production); format: biochemical; conditions: read-out: (b) MLL LCMS Peptide Val.v.1 Qualified AC50
# Procedure, shortened: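 MLL1-4C (30 nM final) was preincubated 20 min with compound (3-fold dilutions, 8 or 12 points) and SAM in Tris-HCl pH 8.0 buffer. H3K4me0 peptide (histone H3[1-21]-biotin) was then added, giving final 2.5 μM SAM and 10 μM substrate, and reactions ran 120 min at rt. After TFA/d4-SAH quench, SAH was quantified by LC-MS/MS and IC50 fitted from control-normalised activity.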
# MV4-11 cells = assay: MV4-11 6-day cell growth CTG (CellTiter-Glo) assay; format: cell-based; conditions: Homo sapiens, MV4-11, 144 h, 6 days, read-out: (c) MLL/WDR5 cell proliferation assay//MLL/WDR5 proliferation MV4:11 Qualified AC50
# Procedure, shortened: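 Exponentially growing MV4-11 AML cells (RPMI 1640, 10% FBS) seeded at 300 cells/well with 12-point 1:3 compound dilutions, top final concentration 50 μM. Viability read by CellTiter-Glo luminescence after 6 days at 37° C; % inhibition vs DMSO-only wells fitted to dose-response for IC50.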
SMILES,IC50 (WDR5) [nM],AC50 [1] [nM],AC50 (MV4-11 cells) [nM]
"CNc1nccn1Cc1cc2c(c(-c3cc(CO)cnc3Cl)c1)CCN(Cc1ccc(F)c(OC)c1)C2=O [Example 53, 5-(2-chloro-5-(hydroxymethyl)pyridin-3-yl)-2-(4-fluoro-3-methoxybenzyl)-7-((2-(methylamino)-1H-imidazol-1-yl)methyl)-3,4-dihydroisoquinolin-1(2H)-one]",10 to 1000,10 to 1000,10 to 1000
"CCOc1cc(CN2CCc3c(cc(CCN(C)CC)cc3-c3ccc(N)nc3C)C2=O)ncc1C#N [Example 155, 6-((5-(6-amino-2-methylpyridin-3-yl)-7-(2-(ethyl(methyl)amino)ethyl)-1-oxo-3,4-dihydroisoquinolin-2(1H)-yl)methyl)-4-ethoxynicotinonitrile]",10 to 1000,10 to 1000,10 to 1000
"CCOc1cc([C@H](C)N2CCc3c(cc(Cn4ccnc4C)cc3-c3cn(C)nc3C)C2=O)nnc1C#N (single isomer, unassigned) [Example 303]",< 10,< 10,< 10
CCOc1cc([C@H](C)N2CCc3c(cc(Cn4ccnc4C)cc3-n3nc(C)nc3C(F)F)C2=O)ncc1C#N [Example 294],10 to 1000,10 to 1000,10 to 1000
"CCn1nc(CN2CCc3c(cc(Cn4ccnc4NC)cc3C3CC3)C2=O)cc1OC [Example 86, 5-cyclopropyl-2-((1-ethyl-5-methoxy-1H-pyrazol-3-yl)methyl)-7-((2-(methylamino)-1H-imidazol-1-yl)methyl)-3,4-dihydroisoquinolin-1(2H)-one]",10 to 1000,10 to 1000,10 to 1000
"CNc1nccn1Cc1cc(CN2CC(F)C2)c2c(c1)C(=O)N([C@@H](C)c1cnc(F)c(OC)c1)CC2 [Example 43, (S)-2-(1-(6-fluoro-5-methoxypyridin-3-yl)ethyl)-5-((3-fluoroazetidin-1-yl)methyl)-7-((2-(methylamino)-1H-imidazol-1-yl)methyl)-3,4-dihydroisoquinolin-1(2H)-one]",10 to 1000,10 to 1000,10 to 1000
"CCOc1cc([C@H](C)N2CCc3c(Cl)cc(Cn4ccnc4NC)cc3C2=O)cnc1C#N [Example 4, (S)-5-(1-(5-chloro-7-((2-(methylamino)-1H-imidazol-1-yl)methyl)-1-oxo-3,4-dihydroisoquinolin-2(1H)-yl)ethyl)-3-ethoxypicolinonitrile]",10 to 1000,10 to 1000,10 to 1000
"CNc1nccn1Cc1cc(CN(C)C)c2c(c1)C(=O)N([C@@H](C)c1cc(OC)c(C#N)cn1)CC2 [Example 45, (S)-6-(1-(5-((dimethylamino)methyl)-7-((2-(methylamino)-1H-imidazol-1-yl)methyl)-1-oxo-3,4-dihydroisoquinolin-2(1H)-yl)ethyl)-4-methoxynicotinonitrile]",10 to 1000,10 to 1000,10 to 1000
"CCOc1cc([C@H](C)N2CCc3c(CN4CC(F)C4)cc(Cn4ccnc4NC)cc3C2=O)cnc1C#N [Example 41, (S)-3-ethoxy-5-(1-(5-((3-fluoroazetidin-1-yl)methyl)-7-((2-(methylamino)-1H-imidazol-1-yl)methyl)-1-oxo-3,4-dihydroisoquinolin-2(1H)-yl)ethyl)picolinonitrile]",10 to 1000,10 to 1000,10 to 1000
CCOc1cc(C(C)N2CCc3c(cc(CCN(C)CC)cc3C(O)C(C)(C)C)C2=O)ncc1C#N (stereo not drawn) [compound 257],10 to 1000,10 to 1000,10 to 1000
"CCOc1cc(CN2CCc3c(cc(CCN(C)CC)cc3-c3cn(C)nc3C)C2=O)ncc1C#N [Example 129, 6-((5-(1,3-dimethyl-1H-pyrazol-4-yl)-7-(2-(ethyl(methyl)amino)ethyl)-1-oxo-3,4-dihydroisoquinolin-2(1H)-yl)methyl)-4-ethoxynicotinonitrile]",< 10,10 to 1000,10 to 1000

# The next lines start with results.
IC50 (WDR5) [nM],AC50 [1] [nM],SMILES,AC50 (MV4-11 cells) [nM]
< 10,10 to 1000,"CCOc1cc([C@H](C)N2CCc3c(cc(CCN(C)CC)cc3-c3cn(C)c(=O)c(Cl)c3C)C2=O)ncc1C#N [Example 170, (S)-6-(1-(5-(5-chloro-1,4-dimethyl-6-oxo-1,6-dihydropyridin-3-yl)-7-(2-(ethyl(methyl)amino)ethyl)-1-oxo-3,4-dihydroisoquinolin-2(1H)-yl)ethyl)-4-ethoxynicotinonitrile]",10 to 1000
< 10,10 to 1000,"CCOc1cc([C@H](C)N2CCc3c(cc(CCN(C)CC)cc3-c3cc(CO)cnc3Cl)C2=O)ncc1F [Example 120, (S)-5-(2-chloro-5-(hydroxymethyl)pyridin-3-yl)-2-(1-(4-ethoxy-5-fluoropyridin-2-yl)ethyl)-7-(2-(ethyl(methyl)amino)ethyl)-3,4-dihydroisoquinolin-1(2H)-one]",10 to 1000
< 10,10 to 1000,CCOc1cc([C@H](C)N2CCc3c(cc(CCN4C[C@@H](O)[C@H]4C)cc3-c3cc(C)cnc3C)C2=O)ncc1C#N [Example 220],10 to 1000
10 to 1000,10 to 1000,"CCOc1cc([C@H](C)N2CCc3c(cc(Cn4ccnc4NC)cc3C3CC3)C2=O)ncc1C#N [Example 83, (S)-6-(1-(5-cyclopropyl-7-((2-(methylamino)-1H-imidazol-1-yl)methyl)-1-oxo-3,4-dihydroisoquinolin-2(1H)-yl)ethyl)-4-ethoxynicotinonitrile]",10 to 1000
< 10,10 to 1000,"CCOc1cc([C@H](C)N2CCc3c(cc(Cn4ccnc4C)cc3-c3nc(C)nn3C)C2=O)ncc1C#N (single isomer, unassigned) [Example 264]",10 to 1000
< 10,10 to 1000,"CCOc1cc([C@H](C)N2CCc3c(cc(CCN(C)CC)cc3-c3cn(C)c(=O)c(C)c3C)C2=O)ncc1C#N [Example 125, (S)-4-ethoxy-6-(1-(7-(2-(ethyl(methyl)amino)ethyl)-1-oxo-5-(1,4,5-trimethyl-6-oxo-1,6-dihydropyridin-3-yl)-3,4-dihydroisoquinolin-2(1H)-yl)ethyl)nicotinonitrile]",10 to 1000
10 to 1000,10 to 1000,"CCOc1cc([C@H](C)N2CCc3c(cc(CCN(C)CC)cc3-c3cncn3C)C2=O)ncc1C#N [Example 157, (S)-4-ethoxy-6-(1-(7-(2-(ethyl(methyl)amino)ethyl)-5-(1-methyl-1H-imidazol-5-yl)-1-oxo-3,4-dihydroisoquinolin-2(1H)-yl)ethyl)nicotinonitrile]",1000 to 25000
10 to 1000,10 to 1000,CCOc1cc([C@H](C)N2CCc3c(cc(Cn4ccnc4C)cc3-c3nn(C)c(=O)cc3C(F)(F)F)C2=O)ncc1C#N [Example 291],10 to 1000
10 to 1000,10 to 1000,CCOc1cc([C@H](C)N2CCc3c(cc(CCN(C)CC(C)O)cc3-c3ccc(F)nc3C)C2=O)ncc1C#N (stereo partly drawn) [Example 242],10 to 1000
10 to 1000,10 to 1000,"CCOc1cc(C(C)N2CCc3c(cc(CCN(C)CC)cc3-c3ccnc(F)c3C)C2=O)ncc1C#N (stereo not drawn) [Example 141, 4-ethoxy-6-(1-(7-(2-(ethyl(methyl)amino)ethyl)-5-(2-fluoro-3-methylpyridin-4-yl)-1-oxo-3,4-dihydroisoquinolin-2(1H)-yl)ethyl)nicotinonitrile]",10 to 1000
